Converted amounts (≈) assume the structure as drawn. Read-outs that look alike come from different tables or passages of the source.
Legend:
[1] = tested on: TREU 667 strain of T. b. brucei; test: Chronic CNS Model; type: in vivo, T. b. brucei in mice
Description: Mice were infected with 10,000 parasites of the TREU 667 strain of T. b. brucei. Twenty one days post-infection mice were treated with a dose of between 6 and 100 mg/kg of the compound, either BID or QD for 7 days intraperitoneally (IP) or orally (PO). Positive control mice were treated with Diminazene (10 mg/kg, IP) on Day 4 post-infection. Negative control mice were treated with Diminazene (10 mg/kg, PO) on Day 21. Since Diminazene is not able to penetrate the CNS, mice treated at Day 21 are not able to cure the infection. Starting 1 week after the end of treatment, mice are monitored for parasitemia and sacrificed if parasites are detected in the blood. Mice that survive 6 months are considered “cured.”

[2] = tested on: bloodstream-form trypanosome T. brucei brucei 427 strain; test: Trypanosoma brucei brucei high-throughput in vitro drug sensitivity assay (resazurin); type: cell-based; details: for Selectivity Index (L929 IC50 / T. b. brucei IC50): T. b. brucei vs L929; for IC50: Trypanosoma brucei
[3] = L929 cytotoxicity evaluation (resazurin); type: cell-based; details: mouse, L929 mouse fibroblast cells; 72 hrs incubation; read-out: Cytotox L-929 IC50
Outline: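 Mouse L929 fibroblasts (1×10^4/mL seeding, attached overnight) were treated 72 h at 37 °C, 5% CO2 with serially diluted compounds in DMSO in D-MEM/10% FBS. Viability read by resazurin fluorescence after 3–4 h (ex 544/em 590 nm); IC50 from sigmoidal fits of single data points.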

[4] = Kinetic solubility by nephelometric (light scattering) method; type: physicochemical; details: phosphate buffered saline, aqueous buffer, kinetic from dmso stock, PBS pH 7.4
Description: The kinetic solubilities of compounds were estimated using a nephelometric (light scattering) method. Briefly, compounds were serially diluted in DMSO, followed by dilution in PBS pH 7.4. After incubation, the amount of light scattered by a compound at each concentration was measured. […] At concentrations above the solubility limit, the compound precipitates and the precipitant in the well scatters the light, generating a signal. Higher levels of precipitant in a well scatter more light and produce a stronger signal.
A stock solution of compound (25 mM in DMSO) was prepared, and was serially diluted in DMSO in two-fold increments in a row of a 96 well plate to a lowest concentration of 24 μM. A duplicate plate was prepared by transfer of half of the volume of each well to a new plate. Each well containing DMSO solution of the test compound was then diluted further (1:100) with phosphate buffered saline (pH 7.4) to provide aqueous solutions of compound at the following final concentrations: 250, 125, 62.5, 31.3, 15.6, 7.8, 3.9, 2.0, 1.0, 0.5 and 0.2 μM. All liquid handling stages were performed on a Beckman Coulter Biomek NX Laboratory Automation Workstation. Each compound was diluted and tested in duplicate, providing four separate wells at each test concentration.
The test solutions of compound were incubated at room temperature for 90 minutes and then analyzed using a Thermoskan Ascent nephelometric plate reader. The nephelometer protocol included two steps: first, the plate was shaken for 60 seconds at 1200 rpm, then each well of the plate was read in succession with an 800 ms settling delay between measurements. The total measurement time for a single plate was less than 4 minutes.
The four values (in nephelometric units) obtained for each compound at each concentration were averaged and plotted on a log scale versus concentration.

[5] = tested on: Leishmania donovani strain 1S-CL2D axenic amastigotes; test: Leishmania donovani axenic amastigote in vitro drug sensitivity assay (resazurin); type: cell-based; details: for Selectivity Index (Ld/L929): L. donovani vs L929; for IC50: Leishmania donovani, 72 hrs incubation
Description: All experiments were conducted with the axenic amastigote-form of the following parasite: Leishmania donovani strain 1S-CL2D from Sudan, World Health Organization (WHO) designation: (MHOM/SD/62/1 S-CL2D). Parasites were cultured in T-25 vented cap flasks and kept in humidified incubators at 37° C. and 5% CO2. The axenic parasite culture media was RPMI-1640/MES/pH 5.5 formulated and prepared as described by Debrabant et. al. (International Journal for Parasitology 2004, Volume 34, page 205-217). To ensure log growth phase, axenic amastigotes were sub-cultured at appropriate dilutions every 2-3 days.
Cultures of axenic amastigotes growing in the log phase were passed through a 22 gauge blunt needle to break up the clumps, diluted 1:10 in RPMI-1640/MES medium and counted using hemocytometer to determine parasite concentration. Amastigotes were diluted to 2×10^5/mL in RPMI-1640/MES medium to generate a 2-fold working concentration for assay. Compounds to be tested were serially diluted in DMSO and 0.5 μL added to 50 μL HMI-9 in triplicate 96-well plates using a Biomek NX liquid handler. Parasites from the diluted stock were added to each well (50 μL) using a Multidrop 384 dispenser to give a final concentration of 1.0×10^5/ml parasites in 0.5% for DMSO. Amastigotes were incubated with compounds for 72 hrs at 37° C. with 5% CO2. Resazurin (10 μL of 12.5 mg/ml stock) from Sigma-Aldrich was added to each well and plates were incubated for an additional 2-3 hrs. Assay plates were read using an EnVision plate reader at an excitation wavelength of 544 nm and emission of 590 nm. Triplicate data points were averaged to generate sigmoidal dose response curve and determine IC50 values using XLfit curve fitting software from IDBS (Guildford, UK).

[6] = Pharmacokinetic studies in mice (plasma, brain); type: in vivo; details: for CL/F / half-life / Cmax / AUC(0-inf) / AUC(0-t): male, CD-1, mouse, 8 mg/kg, oral; for CL/F / half-life: mice (Table 3a); for CL/F: read-out: Oral Clearance Cl/F (converted); for half-life: read-out: t½ (converted); for Cmax / AUC(0-inf) / AUC(0-t): mice, normalized to 25 mg/kg (Table 3a); for AUC(0-inf): read-out: Exposure/trapezoid AUC0-inf; for AUC(0-t): read-out: Exposure/trapezoid AUC0-last; for Fold improvement 69 vs E14: AUC0-inf / Fold improvement 69 vs E14: AUC0-last / Fold improvement 69 vs E14: Cmax / Fold improvement 69 vs E14: Oral Clearance Cl/F / Fold improvement 69 vs E14: t½: mouse, in vivo, po
Description: Male CD-1 mice weighing approximately 25 g received the test article (E19 or 82 or E14 or 69) by either intravenous (IV), oral gavage (OG) or intra-peritoneal (IP) routes. Animals in IV group (6-10 animals, 1-2 per time point) received a single bolus injection of approximately 2 mg/kg of the test article. Animals receiving […], or as 4 repeat doses ([…], 1-2 per time point).
All doses were administered as clear colorless solutions in either: 50% (v/v) PEG400:20% (v/v) ethanol:30% (v/v) carboxymethylcellulose (0.5% w/v in sterile water for injection, WFI), or as in situ sodium salts in 5% (m/v) dextrose:2% (v/v) ethanol in DWI. All dose solutions were delivered at 4 mL/kg. Animals were fasted for at least 4 hours before dosing, and for 2 hours after dosing.
Blood samples and brain tissue were sampled from 1 or 2 animals/timepoint/group immediately before dosing and approximately 0.17, 0.5, 1, 2, 3, 4, 6, 8, 12, 18 and 24 hr after dosing for full pharmacokinetic and tissue analysis, or at 0.5, 2 and 4 hours post dosing to assess early-phase CNS disposition.
Bioanalysis for test article in whole blood, plasma or brain tissue was performed by HPLC with tandem mass spectrometry (LC-MSMS). Whole blood and plasma samples were treated with 3 volumes of either acetonitrile or methanol to precipitate plasma proteins. Treated samples were centrifuged and supernatants removed for analysis. Brain tissues were weighed and homogenized mechanically in the presence of 1 volume of phosphate-buffered saline (PBS). The resulting tissue suspensions were then diluted with a further volume of PBS, and then treated in the same manner as whole blood or plasma.
Extracted samples were assayed for test article by means of LC-MSMS employing reversed-phase chromatography coupled to a triple quadrupole mass spectrometer employing electrospray ionization in the positive ion mode. The analytical column was a Phenomenex Luna 3μ C8 50×2 mm, with an online sample purification step performed on a Phenomenex Synergi 4μ Polar RP 50×2 mm column.
Test articles were eluted using a binary mobile phase gradient comprising 5 mM Ammonium Acetate: 0.1% formic acid in either MeOH or H2O.
Non-compartmental analysis of plasma test article concentration versus time was performed in Microsoft Excel to generate pharmacokinetic parameters including: area under the curve (AUC), clearance (as Cl or Cl/F), volume of distribution (Vdss), half-life (t½), and bioavailability (F).

[7] = 72 hrs incubation, read-out: T. b. brucei IC50
[8] = 72 hrs incubation, read-out: T.b. brucei IC50
[9] = read-out: L. donovani axenic amastigotes IC50
[10] = read-out: L. donovani axenic amastigotes IC50 (ug/mL)

In the case of `CC1(C)OB(O)c2cc(NC(=O)c3ccc(F)cc3C(F)(F)F)ccc21`, the “mice with absence of blood parasites through Day 84” value ([1]; 75 mg/kg BID for 7 days, starting at Day 21 post-infection) is reported as 100%.

In the case of `N=C(N)c1ccc(/N=N/Nc2ccc(C(=N)N)cc2)cc1` [Diminazene, diminazene, reference compound], the “Day by which all animals relapsed to exhibit blood parasitemia” value ([1]; treated on Day 21 (10 mg/kg)) is reported as ≤ 49 days.

For `CC1OB(O)c2cc(NC(=O)c3ccc(F)cc3C(F)(F)F)ccc21` (stereo not shown) [compound 1], the “Selectivity Index (L929 IC50 / T. b. brucei IC50)” value [2] was 13, the IC50 [2, 7] was 258 nM and the IC50 [2, 8] was 0.091 µg/mL. The IC50 at 72 h [3] was 1.21 µg/mL (≈ 3.43 µM), the solubility at 90 min [4] was 50 µM (≈ 17.7 µg/mL) and the “Selectivity Index (Ld/L929)” value [5] was 7. The IC50 [5, 9] was 524 nM and the IC50 [5, 10] was 0.185 µg/mL.

In the case of `CC1OB(O)c2cc(NC(=O)c3ccccc3C(F)(F)F)ccc21` (stereo not shown) [compound 2, N-(1-Hydroxy-3-methyl-1,3-dihydro-benzo[c][1,2]oxaborol-6-yl)-2-trifluoromethyl-benzamide], the “Selectivity Index (L929 IC50 / T. b. brucei IC50)” value [2] is reported as 7, the IC50 [2, 7] is reported as 233 nM and the IC50 [2, 8] is reported as 0.078 µg/mL. The IC50 at 72 h [3] was 0.53 µg/mL (≈ 1.58 µM), the solubility at 90 min [4] was 3 µM (≈ 1.01 µg/mL) and the “Selectivity Index (Ld/L929)” value [5] was 2. For the same compound, the IC50 [5, 9] was 830 nM and the IC50 [5, 10] was 0.278 µg/mL.

In the case of `CC1OB(O)c2cc(NC(=O)c3ccc(F)cc3)ccc21` (stereo not shown) [compound 3, 4-Fluoro-N-(1-hydroxy-3-methyl-1,3-dihydro-benzo[c][1,2]oxaborol-6-yl)-benzamide], the “Selectivity Index (L929 IC50 / T. b. brucei IC50)” value [2] is reported as >200, the IC50 [2, 7] is reported as 175 nM and the IC50 [2, 8] is reported as 0.05 µg/mL. For the same compound, the IC50 at 72 h [3] was > 10 µg/mL, the solubility at 90 min [4] was 100 µM (≈ 28.5 µg/mL) and the “Selectivity Index (Ld/L929)” value [5] was >10. For the same compound, the IC50 [5, 9] was 344 nM and the IC50 [5, 10] was 0.098 µg/mL.

For `CC1OB(O)c2cc(NC(=O)c3ccccc3Cl)ccc21` (stereo not shown) [compound 4, 2-Chloro-N-(1-hydroxy-3-methyl-1,3-dihydro-benzo[c][1,2]oxaborol-6-yl)-benzamide], the “Selectivity Index (L929 IC50 / T. b. brucei IC50)” value [2] was 52, the IC50 [2, 7] was 80 nM and the IC50 [2, 8] was 0.024 µg/mL. For the same compound, the IC50 at 72 h [3] was 1.24 µg/mL (≈ 4.11 µM), the solubility at 90 min [4] was > 200 µM and the “Selectivity Index (Ld/L929)” value [5] was 9. It also gave an IC50 [5, 9] of 458 nM and an IC50 [5, 10] of 0.138 µg/mL.

With `COc1ccc(C(=O)Nc2ccc3c(c2)B(O)OC3C)cc1` (stereo not shown) [compound 5, N-(1-Hydroxy-3-methyl-1,3-dihydro-benzo[c][1,2]oxaborol-6-yl)-4-methoxy-benzamide] the “Selectivity Index (L929 IC50 / T. b. brucei IC50)” value [2] was >185, the IC50 [2, 7] was 182 nM and the IC50 [2, 8] was 0.054 µg/mL. For the same compound, the IC50 at 72 h [3] was > 10 µg/mL, the solubility at 90 min [4] was 100 µM (≈ 29.7 µg/mL) and the “Selectivity Index (Ld/L929)” value [5] was >93. The IC50 [5, 9] was 360 nM and the IC50 [5, 10] was 0.107 µg/mL.

In the case of `CC1(C)OB(O)c2cc(NC(=O)c3ccc(F)cc3Cl)ccc21` [compound 69, 2-Chloro-4-fluoro-N-(1-hydroxy-3,3-dimethyl-1,3-dihydro-benzo[c][1,2]oxaborol-6-yl)-benzamide], the “Selectivity Index (L929 IC50 / T. b. brucei IC50)” value [2] is reported as >35, the IC50 ([2]; 72 h, read-out: T. b. brucei IC50 (nM)) is reported as 845 nM and the IC50 ([2]; 72 h, read-out: T.b. brucei IC50 (ug/mL)) is reported as 0.282 µg/mL. For the same compound, the IC50 at 72 h [3] was > 10 µg/mL, the CL/F ([6]; brain) was 20 mL/min/kg and the half-life ([6]; brain) was 1.4 h. The Cmax ([6]; brain) was 3250 ng/mL, the AUC(0-inf) ([6]; brain) was 21300 ng·h/mL and the AUC(0-t) ([6]; brain) was 20800 ng·h/mL. The CL/F ([6]; plasma) was 7.32 mL/min/kg, the half-life ([6]; plasma) was 3.7 h and the Cmax ([6]; plasma) was 7670 ng/mL. For the same compound, the AUC(0-inf) ([6]; plasma) was 58000 ng·h/mL, the AUC(0-t) ([6]; plasma) was 56900 ng·h/mL and the “Fold improvement 69 vs E14: AUC0-inf” value ([6]; in brain) was 6.8 fold. The “Fold improvement 69 vs E14: AUC0-last” value ([6]; in brain) was 6.7 fold, the “Fold improvement 69 vs E14: Cmax” value ([6]; in brain) was 1.3 fold and the “Fold improvement 69 vs E14: Oral Clearance Cl/F” value ([6]; in brain) was 6.7 fold. For the same compound, the “Fold improvement 69 vs E14: t½” value ([6]; in brain) was 0.9 fold, the “Fold improvement 69 vs E14: AUC0-inf” value ([6]; in plasma) was 3.8 fold and the “Fold improvement 69 vs E14: AUC0-last” value ([6]; in plasma) was 4.0 fold. For the same compound, the “Fold improvement 69 vs E14: Cmax” value ([6]; in plasma) was 2.1 fold, the “Fold improvement 69 vs E14: Oral Clearance Cl/F” value ([6]; in plasma) was 3.9 fold and the “Fold improvement 69 vs E14: t½” value ([6]; in plasma) was 1.2 fold. For the same compound, the solubility at 90 min [4] was 100 µM (≈ 33.4 µg/mL).
